Assay results as given in US20220324925A1, “THERAPEUTIC PEPTIDES” (COHBAR, INC., priority 2019, published 2022).
Where no end group is shown, it is not given here. [ ]: non-standard residue; d: D form.

How the values were obtained:
3T3-L1 adipocytes = assay: Free Fatty Acid Levels in cultured 3T3-L1 Adipocytes; conditions: for Free Fatty Acid Levels in 3T3-L1 Adipocytes Expressed as a Percent Isoproterenol Control, Percent of Control Value: test peptides 25 μM, 20-22 hours then isoproterenol (1 nM) 3 hours
Description: Following 12-15 days' differentiation, test peptides were added to a final concentration of 25 μM and incubated for 20-22 hours in Adipocyte Maintenance Medium. After 20-22 hours, isoproterenol (1 nM) was added to all wells except untreated controls and test peptides were replenished. Cells were incubated for a further 3 hours in Assay Buffer (Zen-Bio). Free fatty acid concentrations in the media were determined using a Free Fatty Acid Assay Kit (Zen-Bio) according to the manufacturer's instructions using a plate reader (540 nm). Absorbance values were corrected for untreated background and expressed relative to isoproterenol treated cells. Treatment with isoproterenol (1 nM) alone was used as the free fatty acid level stimulatory control. The relative standard deviation of the isoproterenol control was <10%.

MDA-MB-231 cells [1] = assay: Cell viability, MTS Assay in MDA-MB-231 Cells; conditions: for MTS Assay in MDA-MB-231 Cells, Percent of Control Activity: 72 hours, relative to DMSO control, concentration not given
MDA-MB-231 cells [2] = assay: Caspase 3/7 Activity (Caspase-Glo 3/7 Assay) in MDA-MB-231 cells; type: cell-based, human; conditions: test peptides 10 μM, 18 hours, relative to DMSO control
Description: The effect of the peptides on cell death/survival can be assessed using a caspase-3 assay. […] MDA-MB-231 cells were grown in DMEM Medium supplemented with 10% FBS. […] Luminescence for each sample well on the plate was measured by Envision 2104 Multilabel Reader (PerkinElmer, Santa Clara, Calif.). Activity was calculated relative to DMSO control.

MCF-7 cells = assay: Cell viability, MTS Assay in MCF-7 Cells; conditions: test peptides 10 μM, 72 hours, relative to DMSO control

Compound: 5 (P[dA]VLELIPLKIFEI[dA]PVFT) [compound 5]
- Free Fatty Acid Levels in 3T3-L1 Adipocytes Expressed as a Percent Isoproterenol Control, Percent of Control Value (3T3-L1 adipocytes): 84%

Compound: 9 (SVWKVAVQTFNCYYYVLQAL; not fully specified (residues 6, 19)) [compound 9]
- Free Fatty Acid Levels in 3T3-L1 Adipocytes Expressed as a Percent Isoproterenol Control, Percent of Control Value (3T3-L1 adipocytes): 134%

Compound: 10 (SVWKV[dA]VQTFNCYYYVLQ[dA]L) [compound 10]
- Free Fatty Acid Levels in 3T3-L1 Adipocytes Expressed as a Percent Isoproterenol Control, Percent of Control Value (3T3-L1 adipocytes): 46%

Compound: 8 (SVWKVAVQTFNCYYYVLQALIN) [compound 8]
- Free Fatty Acid Levels in 3T3-L1 Adipocytes Expressed as a Percent Isoproterenol Control, Percent of Control Value (3T3-L1 adipocytes): 117%

Compound: 13 (VSVLESALGRTRV; not fully specified (residue 7)) [compound 13]
- Free Fatty Acid Levels in 3T3-L1 Adipocytes Expressed as a Percent Isoproterenol Control, Percent of Control Value (3T3-L1 adipocytes): 123%

Compound: 3 (PIVLELIPLKIFEIGPVFTL) [compound 3]
- Free Fatty Acid Levels in 3T3-L1 Adipocytes Expressed as a Percent Isoproterenol Control, Percent of Control Value (3T3-L1 adipocytes): 68%

Compound: insulin [reference compound]
- Free fatty acid levels, % of the isoproterenol control value (3T3-L1 adipocytes; insulin 100 nM, positive control): < 5%

Compound: 17 (MRCERYTSIPRSEMVNASIIFM) [compound 17]
- MTS Assay in MDA-MB-231 Cells, Percent of Control Activity (MDA-MB-231 cells [1]): 79%
- Caspase 3/7 Activity in MDA-MB-231 Cells, Percent of Control Activity (MDA-MB-231 cells [2]): 51%
- Free Fatty Acid Levels in 3T3-L1 Adipocytes Expressed as a Percent Isoproterenol Control, Percent of Control Value (3T3-L1 adipocytes): 108%
- MTS Assay in MCF-7 Cells, Percent of Control Activity (MCF-7 cells): 54%

Compound: 12 (MVSVLESALGRTRV) [compound 12]
- MTS Assay in MDA-MB-231 Cells, Percent of Control Activity (MDA-MB-231 cells [1]): 74%
- Caspase 3/7 Activity in MDA-MB-231 Cells, Percent of Control Activity (MDA-MB-231 cells [2]): 44%
- Free Fatty Acid Levels in 3T3-L1 Adipocytes Expressed as a Percent Isoproterenol Control, Percent of Control Value (3T3-L1 adipocytes): 124%
- MTS Assay in MCF-7 Cells, Percent of Control Activity (MCF-7 cells): 32%

Compound: 14 (VSVLES[dA]LGRTRV) [compound 14]
- Free Fatty Acid Levels in 3T3-L1 Adipocytes Expressed as a Percent Isoproterenol Control, Percent of Control Value (3T3-L1 adipocytes): 94%

Compound: 20 (R[dA]ERYTSIPRSEMVN[dA]SI[dA]F) [compound 20]
- Free Fatty Acid Levels in 3T3-L1 Adipocytes Expressed as a Percent Isoproterenol Control, Percent of Control Value (3T3-L1 adipocytes): 96%

Compound: 15 (VSVLES[dA]LGRTR[dA]) [compound 15]
- Free Fatty Acid Levels in 3T3-L1 Adipocytes Expressed as a Percent Isoproterenol Control, Percent of Control Value (3T3-L1 adipocytes): 126%

Compound: 7 (MSVWKVAVQTFNCYYYVLQALIN) [compound 7]
- MTS Assay in MDA-MB-231 Cells, Percent of Control Activity (MDA-MB-231 cells [1]): 83%
- Caspase 3/7 Activity in MDA-MB-231 Cells, Percent of Control Activity (MDA-MB-231 cells [2]): 54%
- Free Fatty Acid Levels in 3T3-L1 Adipocytes Expressed as a Percent Isoproterenol Control, Percent of Control Value (3T3-L1 adipocytes): 128%
- MTS Assay in MCF-7 Cells, Percent of Control Activity (MCF-7 cells): 64%

Compound: CN[C@@H]1C[C@H]2O[C@@](C)([C@@H]1OC)n1c3ccccc3c3c4c(c5c6ccccc6n2c5c31)C(=O)NC4 [staurosporine, reference compound]
- Cell viability, % of the DMSO control value (MDA-MB-231 cells [1]; Staurosporine 10 uM, MDA-MB-231 cells, positive control): 3%

Compound: 19 (RCERYTSIPRSEMVN[dA]SIIF) [compound 19]
- Free Fatty Acid Levels in 3T3-L1 Adipocytes Expressed as a Percent Isoproterenol Control, Percent of Control Value (3T3-L1 adipocytes): 78%

Compound: 18 (RCERYTSIPRSEMVNASIIFM) [compound 18]
- Free Fatty Acid Levels in 3T3-L1 Adipocytes Expressed as a Percent Isoproterenol Control, Percent of Control Value (3T3-L1 adipocytes): 96%

Compound: 2 (PIVLELIPLKIFEIGPVFTL) [compound 2]
- MTS Assay in MDA-MB-231 Cells, Percent of Control Activity (MDA-MB-231 cells [1]): 78%
- Caspase 3/7 Activity in MDA-MB-231 Cells, Percent of Control Activity (MDA-MB-231 cells [2]): 99%
- Free Fatty Acid Levels in 3T3-L1 Adipocytes Expressed as a Percent Isoproterenol Control, Percent of Control Value (3T3-L1 adipocytes): 92%
- MTS Assay in MCF-7 Cells, Percent of Control Activity (MCF-7 cells): 71%
